Eight compounds from US20240299387A1, “HETEROCYCLIC EGFR INHIBITORS FOR USE IN THE TREATMENT OF CANCER” (Blueprint Medicines Corporation, priority 2021, published 2024) can be followed below.

For test [1], the target named is T1, EGFR L858R T790M in NCI-H1975 cell line (Homo sapiens, UniProt P00533, L858R/T790M).
T1 construct: host or cells: NCI-H1975
The test is described as follows: NCI-H1975 pEGFR AlphaLISA assay. The format is cell-based. As to conditions: NCI-H1975 cells (EGFR L858R T790M), p-EGFR (Tyr1068), 4-5 hours incubation; read-out: Ext pEGFR H1975 GMean IC50 (nM) Protocol: @Pharmaron AlphaLISA (Num). In outline:
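Phospho-EGFR measured by AlphaLISA after overnight donor-bead incubation; IC50 from percent pEGFR inhibition versus log concentration.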
For orientation: Bead proximity is the source of the signal in Alpha formats.

Another test has as its target T2, EGFR (L858R T790M C797S) (Homo sapiens, UniProt P00533, C797S/L858R/T790M).
T2 construct: purchased SignalChem E10-122VG
Description: Biochemical EGFR inhibition assay (Caliper mobility shift), EGFR LRTMCS mutant. The conditions noted are these: LRTMCS (PH) IC50 (nM) @ 1 mM ATP (Num). In outline: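 Kinase reactions at 25 °C run to 10–20% peptide phosphorylation, stopped with 35 mM EDTA. Phosphorylated product and substrate separated electrophoretically by mobility shift. Apparent IC50 from percent activity versus log compound concentration.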

T1 sequence (P00533 25-1210 T790M/L858R): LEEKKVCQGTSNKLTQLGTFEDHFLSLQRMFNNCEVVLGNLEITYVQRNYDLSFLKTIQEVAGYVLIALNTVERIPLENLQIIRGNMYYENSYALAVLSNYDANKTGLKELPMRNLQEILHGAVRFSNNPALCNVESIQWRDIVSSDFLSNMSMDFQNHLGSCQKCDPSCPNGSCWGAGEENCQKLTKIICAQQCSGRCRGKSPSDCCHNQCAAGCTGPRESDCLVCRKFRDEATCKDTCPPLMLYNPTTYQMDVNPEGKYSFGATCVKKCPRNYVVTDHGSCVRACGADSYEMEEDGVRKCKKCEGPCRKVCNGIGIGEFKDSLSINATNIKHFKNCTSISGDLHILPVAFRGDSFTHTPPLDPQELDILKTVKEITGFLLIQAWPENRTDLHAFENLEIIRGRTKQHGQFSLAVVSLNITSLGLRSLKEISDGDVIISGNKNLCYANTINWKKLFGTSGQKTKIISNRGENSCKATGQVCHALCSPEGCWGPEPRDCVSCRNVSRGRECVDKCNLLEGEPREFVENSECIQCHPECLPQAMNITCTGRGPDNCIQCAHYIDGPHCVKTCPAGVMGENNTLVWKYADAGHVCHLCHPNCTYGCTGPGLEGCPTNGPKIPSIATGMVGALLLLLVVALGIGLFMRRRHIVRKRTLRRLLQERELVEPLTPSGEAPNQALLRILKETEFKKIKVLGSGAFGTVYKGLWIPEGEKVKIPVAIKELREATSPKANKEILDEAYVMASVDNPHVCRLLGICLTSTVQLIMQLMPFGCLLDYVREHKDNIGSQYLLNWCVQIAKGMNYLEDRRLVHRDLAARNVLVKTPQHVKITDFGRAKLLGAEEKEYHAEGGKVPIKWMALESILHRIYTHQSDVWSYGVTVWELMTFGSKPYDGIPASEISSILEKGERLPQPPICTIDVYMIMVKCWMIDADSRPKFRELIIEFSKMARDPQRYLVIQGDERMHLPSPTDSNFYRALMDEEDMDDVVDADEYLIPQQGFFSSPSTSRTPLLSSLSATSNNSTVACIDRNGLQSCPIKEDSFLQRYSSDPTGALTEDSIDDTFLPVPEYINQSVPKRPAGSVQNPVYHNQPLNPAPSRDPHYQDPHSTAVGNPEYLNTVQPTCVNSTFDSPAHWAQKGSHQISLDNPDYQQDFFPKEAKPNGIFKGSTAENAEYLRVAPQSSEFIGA
T2 sequence (P00533 25-1210 T790M/C797S/L858R): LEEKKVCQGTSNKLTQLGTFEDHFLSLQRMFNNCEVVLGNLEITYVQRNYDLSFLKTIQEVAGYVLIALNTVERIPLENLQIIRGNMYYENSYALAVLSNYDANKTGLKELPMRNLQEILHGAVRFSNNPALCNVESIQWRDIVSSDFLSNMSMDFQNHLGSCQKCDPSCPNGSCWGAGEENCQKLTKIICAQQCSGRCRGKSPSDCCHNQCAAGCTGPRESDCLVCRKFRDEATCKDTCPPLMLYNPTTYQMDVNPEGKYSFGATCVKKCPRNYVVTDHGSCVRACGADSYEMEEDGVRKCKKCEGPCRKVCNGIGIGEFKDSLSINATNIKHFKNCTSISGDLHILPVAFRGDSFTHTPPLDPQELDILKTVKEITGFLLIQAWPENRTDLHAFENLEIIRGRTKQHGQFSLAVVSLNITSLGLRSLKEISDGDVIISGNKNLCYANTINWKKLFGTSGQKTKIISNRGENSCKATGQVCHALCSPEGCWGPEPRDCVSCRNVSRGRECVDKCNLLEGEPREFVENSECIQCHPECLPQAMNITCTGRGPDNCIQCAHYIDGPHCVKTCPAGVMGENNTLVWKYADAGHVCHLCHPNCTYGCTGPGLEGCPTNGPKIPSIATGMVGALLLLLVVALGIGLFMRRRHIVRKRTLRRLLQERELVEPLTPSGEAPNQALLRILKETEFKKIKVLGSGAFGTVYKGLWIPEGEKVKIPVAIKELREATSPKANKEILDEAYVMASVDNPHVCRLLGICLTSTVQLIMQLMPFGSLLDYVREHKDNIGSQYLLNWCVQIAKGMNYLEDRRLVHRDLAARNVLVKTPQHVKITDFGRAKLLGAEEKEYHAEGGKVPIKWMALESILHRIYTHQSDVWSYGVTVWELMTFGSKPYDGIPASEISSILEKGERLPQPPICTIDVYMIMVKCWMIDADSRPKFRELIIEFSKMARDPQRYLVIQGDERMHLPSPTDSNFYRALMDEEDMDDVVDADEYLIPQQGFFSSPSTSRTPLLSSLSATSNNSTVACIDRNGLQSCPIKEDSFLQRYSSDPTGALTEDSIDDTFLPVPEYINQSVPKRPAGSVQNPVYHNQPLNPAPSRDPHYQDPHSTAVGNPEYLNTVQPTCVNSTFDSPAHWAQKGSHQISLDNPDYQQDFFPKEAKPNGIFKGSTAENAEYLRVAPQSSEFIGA

In the case of `CC(C)c1ccc(OCCn2cnnc2)c2cnc(Nc3ccnc(N4CC[C@@](C)(O)[C@@H](F)C4)n3)cc12` [Example 28, (3S,4R)-1-(4-((8-(2-(4H-1,2,4-triazol-4-yl)ethoxy)-5-isopropylisoquinolin-3-yl)amino)pyrimidin-2-yl)-3-fluoro-4-methylpiperidin-4-ol], the IC50 in test [1] is 20 to 30 nM; on EGFR (L858R T790M C797S), less than 15 nM.

As to `CC(C)c1ccc(OC[C@@H](C)n2cnnc2)c2cnc(Nc3ccnc(N4CC[C@](C)(O)[C@H](F)C4)n3)cc12` [Example 37, (3R,4S)-1-(4-((8-((R)-2-(4H-1,2,4-triazol-4-yl)propoxy)-5-isopropylisoquinolin-3-yl)amino)pyrimidin-2-yl)-3-fluoro-4-methylpiperidin-4-ol], the IC50 was 30 to 50 nM in test [1] and 15 to 20 nM at EGFR (L858R T790M C797S).

Take `CC(C)c1ccc(OCCc2cncn2C)c2cnc(Nc3ccnc(N4CC[C@](C)(O)[C@H](F)C4)n3)cc12` [Example 38, (3R,4S)-3-fluoro-1-(4-((5-isopropyl-8-(2-(1-methyl-1H-imidazol-5-yl)ethoxy)isoquinolin-3-yl)amino)pyrimidin-2-yl)-4-methylpiperidin-4-ol]: the IC50 was more than 50 nM in test [1] and 15 to 20 nM at EGFR (L858R T790M C797S).

On to `CC(=O)N1CC(COc2cccc3cc(Nc4ccnc(N5C[C@@H](F)[C@@H](O)C(C)(C)C5)n4)ncc23)C1` (single isomer, unassigned) [Example 42, 1-(3-(((3-((2-((4S,5R)-5-fluoro-4-hydroxy-3,3-dimethylpiperidin-1-yl)pyrimidin-4-yl)amino)isoquinolin-8-yl)oxy)methyl)azetidin-1-yl)ethenone or 1-(3-(((3-((2-((4R,5S)-5-fluoro-4-hydroxy-3,3-dimethylpiperidin-1-yl)pyrimidin-4-yl)amino)isoquinolin-8-yl)oxy)methyl)azetidin-1-yl)ethenone], for which the IC50 in test [1] was more than 50 nM; at EGFR (L858R T790M C797S) it was 20 to 30 nM.

With `CO[C@H]1C[C@H](NC(=O)c2ncc(C(C)C)c3cc(Nc4ccnc(N5CC[C@@H](O)[C@@](C)(F)C5)n4)ncc23)C1` [Example 74, 6-((2-((3S,4R)-3-fluoro-4-hydroxy-3-methylpiperidin-1-yl)pyrimidin-4-yl)amino)-4-isopropyl-N-((1r,3r)-3-methoxycyclobutyl)-2,7-naphthyridine-1-carboxamide], the IC50 is 20 to 30 nM in test [1] and less than 15 nM at EGFR (L858R T790M C797S).

On to `CO[C@H]1CCN(c2nccc(Nc3cc4c(C(C)C)ccc(OCCn5cnnc5)c4cn3)n2)C[C@H]1F` [Example 41, 8-(2-(4H-1,2,4-triazol-4-yl)ethoxy)-N-(2-((3R,4S)-3-fluoro-4-methoxypiperidin-1-yl)pyrimidin-4-yl)-5-isopropylisoquinolin-3-amine], for which the IC50 is 20 to 30 nM in test [1] and less than 15 nM at EGFR (L858R T790M C797S).

As for `CCNC(=O)c1ncc(C(C)C)c2cc(Nc3ccnc(N4CC[C@@H](O)[C@@](C)(F)C4)n3)ncc12` [Example 65, N-ethyl-6-((2-((3S,4R)-3-fluoro-4-hydroxy-3-methylpiperidin-1-yl)pyrimidin-4-yl)amino)-4-isopropyl-2,7-naphthyridine-1-carboxamide], the IC50 in test [1] was more than 50 nM; at EGFR (L858R T790M C797S) it was 15 to 20 nM.

Consider `CC(C)c1cnc(NC[C@H](C)N(C)C)c2cnc(Nc3ccnc(N4CC[C@@H](O)[C@@](C)(F)C4)n3)cc12` (single isomer, unassigned) [Example 4, (3S,4R)-1-(4-((8-(((S)-2-(dimethylamino)propyl)amino)-5-isopropyl-2,7-naphthyridin-3-yl)amino)pyrimidin-2-yl)-3-fluoro-3-methylpiperidin-4-ol or (3S,4R)-1-(4-((8-(((R)-2-(dimethylamino)propyl)amino)-5-isopropyl-2,7-naphthyridin-3-yl)amino)pyrimidin-2-yl)-3-fluoro-3-methylpiperidin-4-ol], for which the IC50 in test [1] was more than 50 nM; on EGFR (L858R T790M C797S), 30 to 100 nM.

By IC50 is commonly meant the concentration that inhibits the measured activity by half.
